Data taken from patent US8119663B2, “Heteroaryl-substituted piperidines” (Bayer Pharma Aktiengesellschaft, priority 2007, dated 2012).
Where a name gives a salt, the structure may show the parent alone.

Target: T1, human protease activated receptor 1 (PAR1) (Homo sapiens, UniProt P25116)
T1 construct: the cell stably expresses the endogenous human PAR1 receptor and the endogenous purinergic receptor P2Y2; endogenous in cells; host or cells: HEK293-derived recombinant cell line constitutively expressing mitochondrial aequorin
T1 sequence (P25116 22-425): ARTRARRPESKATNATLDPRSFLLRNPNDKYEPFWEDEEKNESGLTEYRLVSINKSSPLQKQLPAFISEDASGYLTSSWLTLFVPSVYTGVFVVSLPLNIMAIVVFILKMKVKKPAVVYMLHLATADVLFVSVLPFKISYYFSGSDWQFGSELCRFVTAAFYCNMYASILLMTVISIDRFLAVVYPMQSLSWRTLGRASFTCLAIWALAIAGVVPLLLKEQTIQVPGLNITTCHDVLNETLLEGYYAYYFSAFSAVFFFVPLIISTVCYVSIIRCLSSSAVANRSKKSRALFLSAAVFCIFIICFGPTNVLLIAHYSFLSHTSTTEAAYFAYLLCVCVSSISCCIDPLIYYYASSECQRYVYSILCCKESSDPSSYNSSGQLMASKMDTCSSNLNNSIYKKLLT
Assay: Cellular functional in vitro test (aequorin luminescence, PAR1 test cell)
Assay type: cell-based
Settings: recombinant HEK293-derived cell line expressing aequorin; PAR1 agonist added at its EC50 5 minutes after test substance
Source text: 1.a) Cellular Functional In vitro Test
A recombinant cell line is used to identify […] of the human protease activated receptor 1 (PAR1) and to quantify the activity of the substances described herein. The cell is originally derived from a human embryonal kidney cell (HEK293; ATCC: American Type Culture Collection, Manassas, Va. 20108, USA). The test cell line constitutively expresses a modified form of the calcium-sensitive photoprotein aequorin which, after reconstitution with the cofactor coelenterazine, emits light when the free calcium concentration in the inner mitochondrial compartment is increased (Rizzuto R, Simpson A W, Brini M, Pozzan T.; Nature 1992, 358, 325-327). Additionally, the cell stably expresses the endogenous human PAR1 receptor and the endogenous purinergic receptor P2Y2. The resulting PAR1 test cell responds to stimulation of the endogenous PAR1 or P2Y2 receptor with an intracellular release of calcium ions, which can be quantified through resulting aequorin luminescence with a suitable luminometer (Milligan G, Marshall F, Rees S, Trends in Pharmacological Sciences 1996, 17, 235-237).
For testing the substance specificity, its effect after activation of the endogenous PAR1 receptor is compared to the effect after activation of the endogenous purinergic P2Y2 receptor which utilizes the same intracellular signal path.
Test procedure: The cells are plated out two days (48 hours) before the test in culture medium (DMEM F12, supplemented with 10% FCS, 2 mM glutamine, 20 mM HEPES, 1.4 mM pyruvate, 0.1 mg/ml gentamycin, 0.15% Na bicarbonate; BioWhittaker Cat.# BE04-687Q; B-4800 Verviers, Belgium) in 384-well microtitre plates and kept in a cell incubator (96% atmospheric humidity, 5% V/V CO2, 37° C.). On the day of the test, the culture medium is replaced by a tyrode solution (in mM: 140NaCl, 5l KCl, 1MgCl2, 2CaCl2, 20 glucose, 20 HEPES), which additionally contains the cofactor coelenterazine (25 μM) and glutathione (4 mM), and the microtitre plate is then incubated for a further 3-4 hours. The test substances are then pipetted onto the microtitre plate, and 5 minutes after the transfer of the test substances into the wells of the microtitre plate the plate is transferred into the luminometer, a PAR1 agonist concentration which corresponds to the EC50 is added and the resulting light signal is immediately measured in the luminometer. To distinguish an antagonist substance action from a toxic action, the endogenous purinergic receptor is immediately subsequently activated with agonist (ATP, final concentration 10 μM) and the resulting light signal is measured.

Structure (SMILES)	IC50
CCc1csc(C2CC(c3ccc(OC(F)(F)F)cc3)CN(C(=O)N3CCOCC3)C2)n1 (racemic) [Example 490, {3-(4-Ethyl-1,3-thiazol-2-yl)-5-[4-(trifluoromethoxy)phenyl]piperidin-1-yl}(morpholin-4-yl)-methanone]	25.1 nM
CC(C)c1nnc(C2CC(c3ccc(OC(F)(F)F)cc3)CN(C(=O)N3CCOCC3)C2)s1 (racemic) [Example 494, Morpholin-4-yl{3-[5-(propan-2-yl)-1,3,4-thiadiazol-2-yl]-5-[4-(trifluoromethoxy)phenyl]piperidin-1-yl}methanone]	5.67 nM
CCc1noc(C2CC(c3ccc(OC(F)(F)F)cc3)CN(C(=O)N3CCC(C#N)CC3)C2)n1 (racemic) [Example 519, 1-({3-(3-Ethyl-1,2,4-oxadiazol-5-yl)-5-[4-(trifluoromethoxy)phenyl]piperidin-1-yl}carbonyl)-piperidine-4-carbonitrile]	20.8 nM
CN(C)Cc1nc(C2CC(c3ccc(C(F)(F)F)cc3)CN(C(=O)N3CCOCC3)C2)no1 (single isomer, unassigned) [Example 170, {3-{5-[(Dimethylamino)methyl]-1,2,4-oxadiazol-3-yl}-5-[4-(trifluoromethyl)phenyl]piperidin-1-yl}(morpholin-4-yl)methanone hydrochloride]	18.8 nM
COCCc1noc(C2CC(c3ccc(OC(F)(F)F)cc3)CN(C(=O)N3CCOCC3)C2)n1 (single isomer, unassigned) [Example 178, {3-[3-(2-Methoxyethyl)-1,2,4-oxadiazol-5-yl]-5-[4-(trifluoromethoxy)phenyl]piperidin-1-yl}-(morpholin-4-yl)methanone]	17.1 nM
COCCc1noc(C2CC(c3cccc(OC(F)(F)F)c3)CN(C(=O)N3CCOCC3)C2)n1 (single isomer, unassigned) [Example 194, {3-[3-(2-Methoxyethyl)-1,2,4-oxadiazol-5-yl]-5-[3-(trifluoromethoxy)phenyl]piperidin-1-yl}-(morpholin-4-yl)methanone]	66.1 nM
COCCc1noc(C2CC(c3ccc(C(F)(F)F)cc3)CN(C(=O)N3CCC(O)CC3)C2)n1 (single isomer, unassigned) [Example 275, (4-Hydroxypiperidin-1-yl) {3-[3-(2-methoxyethyl)-1,2,4-oxadiazol-5-yl]-5-[4-(trifluoromethyl)-phenyl]piperidin-1-yl}methanone]	10.3 nM
COCCc1noc(C2CC(c3ccc(C(F)(F)F)cc3)CN(C(=O)N3CC(O)C3)C2)n1 (single isomer, unassigned) [Example 279]	14.7 nM
Cc1noc(C2CC(c3ccc(OC(F)(F)F)cc3)CN(C(=O)N3CCC(O)CC3)C2)n1 (single isomer, unassigned) [Example 454, (4-Hydroxypiperidin-1-yl){3-(3-methyl-1,2,4-oxadiazol-5-yl)-5-[4-(trifluoromethoxy)phenyl]piperidin-1-yl}methanone]	47.5 nM

More lines, now with the values ahead:

IC50	Structure (SMILES)
4.16 nM	CN(C)Cc1nnc(C2CC(c3ccc(OC(F)(F)F)cc3)CN(C(=O)N3CCOCC3)C2)o1 (racemic) [Example 470, {3-{5-[(Dimethylamino)methyl]-1,3,4-oxadiazol-2-yl}-5-[4-(trifluoromethoxy)phenyl]piperidin-1-yl}(morpholin-4-yl)methanone]
23.4 nM	CC(C)Cc1nnc(C2CC(c3ccc(OC(F)(F)F)cc3)CN(C(=O)N3CCOCC3)C2)o1 (racemic) [Example 474, {3-[5-(2-Methylpropyl)-1,3,4-oxadiazol-2-yl]-5-[4-(trifluoromethoxy)phenyl]piperidin-1-yl}-(morpholin-4-yl)methanone]
76.6 nM	CCSCc1csc(C2CC(c3ccc(CC)cc3)CN(C(=O)N3CCOCC3)C2)n1 (racemic) [Example 484, [3-(4-Ethylphenyl)-5-{4-[(ethylsulphanyl)methyl]-1,3-thiazol-2-yl}piperidin-1-yl](morpholin-4-yl)methanone]
107 nM	CC(C)(C)c1csc(C2CC(c3ccc(OC(F)(F)F)cc3)CN(C(=O)N3CCOCC3)C2)n1 (racemic) [Example 487, {3-(4-tert-Butyl-1,3-thiazol-2-yl)-5-[4-(trifluoromethoxy)phenyl]piperidin-1-yl}(morpholin-4-yl)-methanone]
3.51 nM	O=C(N1CCOCC1)N1CC(c2ccc(OC(F)(F)F)cc2)CC(c2nnc(-c3ccccc3)s2)C1 (racemic) [Example 495, Morpholin-4-yl{3-(5-phenyl-1,3,4-thiadiazol-2-yl)-5-[4-(trifluoromethoxy)phenyl]piperidin-1-yl}-methanone]
5.16 nM	O=C(N1CCOCC1)N1CC(c2ccc(OC(F)(F)F)cc2)CC(c2nc(C3CCC3)no2)C1 (racemic) [Example 513, {3-(3-Cyclobutyl-1,2,4-oxadiazol-5-yl)-5-[4-(trifluoromethoxy)phenyl]piperidin-1-yl}(morpholin-4-yl)methanone]
11 nM	CC(C)c1noc(C2CC(c3ccc(OC(F)(F)F)cc3)CN(C(=O)N3CCC(C#N)CC3)C2)n1 (racemic) [Example 520, 1-({3-[3-(Propan-2-yl)-1,2,4-oxadiazol-5-yl]-5-[4-(trifluoromethoxy)phenyl]piperidin-1-yl}-carbonyl)piperidine-4-carbonitrile]
5.74 nM	Cc1noc(C2CC(c3ccc(OC(F)(F)F)cc3)CN(C(=O)N3CCOCC3)C2)n1 (single isomer, unassigned) [Example 239, {3-(3-Methyl-1,2,4-oxadiazol-5-yl)-5-[4-(trifluoromethoxy)phenyl]piperidin-1-yl}(morpholin-4-yl)methanone]
11.4 nM	Cc1noc(C2CC(c3ccc(C(F)(F)F)cc3)CN(C(=O)N3CCC(O)CC3)C2)n1 (single isomer, unassigned) [Example 260, (4-Hydroxypiperidin-1-yl){(3-(3-methyl-1,2,4-oxadiazol-5-yl)-5-[4-trifluoromethyl)phenyl]-piperidin-1-yl}methanone]
25.3 nM	COCCc1noc(C2CC(c3ccc(C(F)(F)F)cc3)CN(C(=O)N3CCC(O)CC3)C2)n1 (single isomer, unassigned) [Example 276, (4-Hydroxypiperidin-1-yl) {3-[3-(2-methoxyethyl)-1,2,4-oxadiazol-5-yl]-5-[4-(trifluoromethyl)-phenyl]piperidin-1-yl}methanone]
3.01 nM	COCCc1noc(C2CC(c3ccc(OC(F)(F)F)c(C)c3)CN(C(=O)N3CCOCC3)C2)n1 (single isomer, unassigned) [Example 322, {3-[3-(2-Methoxyethyl)-1,2,4-oxadiazol-5-yl]-5-[3-methyl-4-(trifluoromethoxy)phenyl]piperidin-1-yl}(morpholin-4-yl)methanone]
25.1 nM	Cc1noc(C2CC(c3ccc(C(F)(F)F)cc3)CN(C(=O)N3CCOCC3)C2)n1 (single isomer, unassigned) [Example 335, {3-(3-Methyl-1,2,4-oxadiazol-5-yl)-5-[4-(trifluoromethyl)phenyl]piperidin-1-yl}(morpholin-4-yl)-methanone]
86.3 nM	COCCc1noc(C2CC(c3ccc(OC(F)(F)F)cc3)CN(C(=O)N3CCC(O)CC3)C2)n1 (single isomer, unassigned) [Example 449, (4-Hydroxypiperidin-1-yl) {3-[3-(2-methoxyethyl)-1,2,4-oxadiazol-5-yl]-5-[4-(trifluoromethoxy)-phenyl]piperidin-1-yl}methanone]
19.6 nM	CC(C)c1noc(C2CC(c3ccc(OC(F)(F)F)cc3)CN(C(=O)N3CCC(O)CC3)C2)n1 (single isomer, unassigned) [Example 451, (4-Hydroxypiperidin-1-yl){3-[3-(propan-2-yl)-1,2,4-oxadiazol-5-yl]-5-[4-(trifluoromethoxy)phenyl]piperidin-1-yl}methanone]
